Assay [1] deals with human RORγt ligand binding domain (RORγt LBD) (Homo sapiens (Human), UniProt P51449). The experiment in a line: RORγt ThermoFluor® assay (thermal shift binding). In short, it runs like this:
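Binding was inferred from thermal stabilisation (ΔTm) of the E. coli-expressed RORγt LBD (0.065 mg/mL), monitored by 1,8-ANS (60 μM) emission at 500 nm during a 1 °C/min ramp. Buffer was Hepes 100 mM pH 7.0 with NaCl, GSH and Tween-20.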

The next assay has as its target full-length human RORγt (Homo sapiens (Human), UniProt P51449). The experiment in a line: RORγt (full-length human) reporter assay, Conditions B or C. It is filed as cell-based. The note with it: for RORγt (FL) Reporter Assay B or C, % inhibition (value marked *): marked *: footnote not given; for inhibition at 3 µM: at 3 μM compound concentration. The gist of the method:
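Readout is dual luciferase: firefly (GAL4-driven) normalized to DMSO-only and saturating-reference controls, then to CMV-Renilla. Full-length human RORγt fused to GAL4-DBD was transiently expressed in HEK293T; compound exposure ran overnight (16-20 h) starting 4-6 h after transfection, final FBS 1.3%, DMSO 0.1%.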
In general terms: Reporter assays use an easily measured gene product as a stand-in for the process of interest.

Where [2] appears, read: read-out: ThermoFluor® Assay, Kd.
Where [3] appears, read: Conditions B or C, read-out: RORγt (FL) Reporter Assay B or C, IC50.
The mark [4] stands for this setting: read-out: RORγt (FL) Reporter Assay B or C, IC50.
Setting [5] is: read-out: RORγt (FL) Reporter Assay B or C, % inhibition.
Where [6] appears, read: RORγt (FL) Reporter Assay B or C, IC50 (μM), Conditions B or C.

The structures appear in SMILES notation. Like-named read-outs stand apart in the source and are kept apart here.

full-length human RORγt, sequence (P51449 other isoform, or with tags, fused parts or gaps): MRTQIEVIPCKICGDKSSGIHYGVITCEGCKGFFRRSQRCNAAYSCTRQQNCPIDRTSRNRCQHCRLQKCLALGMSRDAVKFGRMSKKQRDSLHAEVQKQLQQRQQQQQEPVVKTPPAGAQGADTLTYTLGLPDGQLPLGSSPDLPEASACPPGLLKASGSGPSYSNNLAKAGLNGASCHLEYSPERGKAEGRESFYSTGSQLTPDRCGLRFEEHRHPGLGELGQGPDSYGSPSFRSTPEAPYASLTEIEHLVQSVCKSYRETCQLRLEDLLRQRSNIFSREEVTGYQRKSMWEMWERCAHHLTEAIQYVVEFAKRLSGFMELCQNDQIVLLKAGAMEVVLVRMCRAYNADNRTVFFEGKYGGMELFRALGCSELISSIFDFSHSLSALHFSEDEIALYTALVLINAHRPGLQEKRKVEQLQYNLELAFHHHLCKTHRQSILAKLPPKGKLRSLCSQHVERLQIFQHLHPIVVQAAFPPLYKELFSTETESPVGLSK
human RORγt ligand binding domain (RORγt LBD), sequence (P51449 other isoform, or with tags, fused parts or gaps): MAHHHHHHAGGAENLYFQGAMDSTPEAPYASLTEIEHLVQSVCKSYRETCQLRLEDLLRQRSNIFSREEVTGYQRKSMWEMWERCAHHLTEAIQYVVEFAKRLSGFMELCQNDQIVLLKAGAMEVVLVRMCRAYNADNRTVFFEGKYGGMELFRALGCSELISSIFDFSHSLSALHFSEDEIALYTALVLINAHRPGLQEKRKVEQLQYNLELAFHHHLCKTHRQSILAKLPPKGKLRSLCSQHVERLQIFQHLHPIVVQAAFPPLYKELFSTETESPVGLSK

With `CC[C@@H](Nc1cc(C(F)(F)F)c(-c2sc(C(=O)NCC(C)(C)O)nc2C(=O)N2CCC[C@@H]2C)cn1)C1CC1` (relative stereo) [Example 129, 5-(6-(((R*)-1-Cyclopropylpropyl)amino)-4-(trifluoromethyl)pyridin-3-yl)-N-(2-hydroxy-2-methylpropyl)-4-((S)-2-methylpyrrolidine-1-carbonyl)thiazole-2-carboxamide], the Kd in assay [1] (setting [2]) was 0.003 µM. Further, the “RORγt (FL) Reporter Assay B or C, % inhibition (value marked *)” value (“RORγt … % inhibition (value marked *)” below) at full-length human RORγt (Conditions B or C) is given as 104* %. For the same compound, on full-length human RORγt (setting [3]), the IC50 was found to be 0.011 µM.

As to `CC[C@H](Nc1cc(C(F)F)c(-c2sc(C(=O)NC3CCS(=O)(=O)CC3)nc2C(=O)N2CCC[C@@H]2C)cn1)C(F)(F)F` [Example 232, 5-(4-(Difluoromethyl)-6-(((S)-1,1,1-trifluorobutan-2-yl)amino)pyridin-3-yl)-N-(1,1-dioxidotetrahydro-2H-thiopyran-4-yl)-4-((S)-2-methylpyrrolidine-1-carbonyl)thiazole-2-carboxamide], the Kd in assay [1] (setting [2]) amounted to 0.0034 µM. The “RORγt … % inhibition (value marked *)” value on full-length human RORγt (Conditions B or C) is listed as 122* %. The IC50 at full-length human RORγt (setting [3]) is 0.069 µM.

As to `C[C@H]1CC(F)(F)CN1C(=O)c1nc(C(=O)N[C@H]2C[C@H](O)C2)sc1-c1cnc(NC(C)(C)C)cc1C(F)F` [Example 429, 5-(6-(tert-Butylamino)-4-(difluoromethyl)pyridin-3-yl)-4-((S)-4,4-difluoro-2-methylpyrrolidine-1-carbonyl)-N-((1r,3S)-3-hydroxycyclobutyl)thiazole-2-carboxamide], the Kd in assay [1] (setting [2]) was found to be 0.0025 µM. Also, on full-length human RORγt (at 0.33 μM compound concentration, read-out: RORγt (FL) Reporter Assay B or C, % inhibition), the inhibition at 0.33 µM came to 113%. In addition, at full-length human RORγt (setting [4]), the IC50 came to 0.0095 µM.

For `C[C@H]1CCCCN1C(=O)c1nc(C(=O)NCC(C)(C)O)sc1-c1cnc(NCC(C)(C)C)cc1C(F)F` [Example 114, (S)-5-(4-(Difluoromethyl)-6-(neopentylamino)pyridin-3-yl)-N-(2-hydroxy-2-methylpropyl)-4-(2-methylpiperidine-1-carbonyl)thiazole-2-carboxamide], the Kd in assay [1] (setting [2]) came to 0.00049 µM. For the same compound, at full-length human RORγt (Conditions B or C), the “RORγt … % inhibition (value marked *)” value was 117* %. The IC50 on full-length human RORγt (setting [3]) stood at 0.0097 µM.

With `C[C@H]1CCCN1C(=O)c1nc(C(=O)N(C)CC(C)(C)O)sc1-c1cnc(NC(C)(C)C)cc1C(F)(F)F` [Example 340, 5-[6-(tert-Butylamino)-4-(trifluoromethyl)-3-pyridyl]-N-(2-hydroxy-2-methyl-propyl)-N-methyl-4-[(2S)-2-methylpyrrolidine-1-carbonyl]thiazole-2-carboxamide], the Kd in assay [1] (setting [2]) was found to be 0.0053 µM. The inhibition at 3 µM at full-length human RORγt (setting [5]) turned out to be 111%. Also, on full-length human RORγt (setting [4]), the half-maximal inhibitory concentration (IC50) came out at 0.011 µM.

In the case of `C[C@H](CO)NC(=O)c1nc(C(=O)N2CCC[C@@H]2C)c(-c2cnc(NC(C)(C)C)cc2C(F)(F)F)s1` [Example 346, 5-[6-(tert-Butylamino)-4-(trifluoromethyl)-3-pyridyl]-N-[(1R)-2-hydroxy-1-methyl-ethyl]-4-[(2S)-2-methylpyrrolidine-1-carbonyl]thiazole-2-carboxamide], the Kd in assay [1] (setting [2]) is 0.0014 µM. Also, the inhibition at 3 µM at full-length human RORγt (setting [5]) is 112%. The IC50 on full-length human RORγt (setting [4]) came out at 0.013 µM.

With `C[C@H](Nc1cc(C(F)(F)F)c(-c2sc(C(=O)NCC(C)(C)O)nc2C(=O)N2C3CCC2CC3)cn1)C(F)(F)F` [Example 82, 4-((1s,4s)-7-Azabicyclo[2.2.1]heptane-7-carbonyl)-N-(2-hydroxy-2-methylpropyl)-5-(4-(trifluoromethyl)-6-(((S)-1,1,1-trifluoropropan-2-yl)amino)pyridin-3-yl)thiazole-2-carboxamide], the Kd in assay [1] (setting [2]) came out at 0.0048 µM. Further, the “RORγt … % inhibition (value marked *)” value on full-length human RORγt (Conditions B or C) is 117* %. At full-length human RORγt (setting [6]), this compound showed an IC50 of 0.079 µM.

As for `C[C@H](Nc1cc(C(F)(F)F)c(-c2sc(C(=O)NCC(C)(C)O)nc2C(=O)N2CC(F)(F)C[C@@H]2C)cn1)C(F)(F)F` [Example 110, 4-((S)-4,4-Difluoro-2-methylpyrrolidine-1-carbonyl)-N-(2-hydroxy-2-methylpropyl)-5-(4-(trifluoromethyl)-6-(((S)-1,1,1-trifluoropropan-2-yl)amino)pyridin-3-yl)thiazole-2-carboxamide], in assay [1] (setting [2]), the Kd was 0.0022 µM. Moreover, on full-length human RORγt (Conditions B or C), the “RORγt … % inhibition (value marked *)” value is given as 112* %. For the same compound, at full-length human RORγt (setting [3]), the IC50 was 0.026 µM.

Turning to `C[C@H](Nc1cc(C(F)F)c(-c2sc(C(=O)N[C@H]3C[C@H](O)C3)nc2C(=O)N2CCC[C@@H]2C)cn1)C(F)(F)F` [Example 188], the Kd in assay [1] (setting [2]) is 0.047 µM. Further, at full-length human RORγt (Conditions B or C), the “RORγt … % inhibition (value marked *)” value is listed as 85* %. For the same compound, the IC50 on full-length human RORγt (setting [3]) turned out to be 0.54 µM.

`C[C@H](CO)NC(=O)c1nc(C(=O)N2C3CCC2CC3)c(-c2cnc(NC(C)(C)C)cc2C(F)F)s1` [Example 427, 4-((1s,4s)-7-Azabicyclo[2.2.1]heptane-7-carbonyl)-5-[6-(tert-butylamino)-4-(difluoromethyl)-3-pyridyl]-N-[(1R)-2-hydroxy-1-methyl-ethyl]thiazole-2-carboxamide]: in assay [1] (setting [2]), the Kd came to 0.003 µM. The compound also gave a half-inhibitory concentration (IC50) at full-length human RORγt (RORγt (FL) Reporter Assay B or C, IC50) of 0.003 µM. Moreover, at full-length human RORγt (setting [5]), the inhibition at 3 µM worked out at 113%.

As for `CC[C@H](Nc1cc(C(F)F)c(-c2sc(C(=O)N[C@H]3COC[C@@H]3O)nc2C(=O)N2CCC[C@@H]2C)cn1)C(F)(F)F` [Example 239, 5-[4-(Difluoromethyl)-6-[[(1S)-1-(trifluoromethyl)propyl]amino]-3-pyridyl]-N-[(3S,4R)-4-hydroxytetrahydrofuran-3-yl]-4-[(2S)-2-methylpyrrolidine-1-carbonyl]thiazole-2-carboxamide], in assay [1] (setting [2]), the Kd turned out to be 0.0054 µM. The “RORγt … % inhibition (value marked *)” value on full-length human RORγt (Conditions B or C) is listed as 105* %. For the same compound, the IC50 on full-length human RORγt (setting [3]) was determined as 0.019 µM.

Take `C[C@H]1CCCN1C(=O)c1nc(C(=O)N2C[C@@H](O)[C@H](F)C2)sc1-c1cnc(NC(C)(C)C)cc1C(F)(F)F` [Example 372, [5-[6-(tert-Butylamino)-4-(trifluoromethyl)-3-pyridyl]-2-[(3R,4R)-3-fluoro-4-hydroxy-pyrrolidine-1-carbonyl]thiazol-4-yl]-[(2S)-2-methylpyrrolidin-1-yl]methanone]: the Kd in assay [1] (setting [2]) came out at 0.0092 µM. In addition, the inhibition at 3 µM at full-length human RORγt (setting [5]) was 125%. In addition, the IC50 on full-length human RORγt (setting [4]) was determined as 0.059 µM.

As to `CC[C@H](Nc1cc(C(F)F)c(-c2sc(C(=O)N3CC(S(C)(=O)=O)C3)nc2C(=O)N2CCC[C@@H]2C)cn1)C(F)(F)F` [Example 393, [5-[4-(Difluoromethyl)-6-[[(1S)-1-(trifluoromethyl)propyl]amino]-3-pyridyl]-2-(3-methylsulfonylazetidine-1-carbonyl)thiazol-4-yl]-[(28)-2-methylpyrrolidin-1-yl]methanone], in assay [1] (setting [2]), the Kd was 0.029 µM. In addition, the inhibition at 3 µM on full-length human RORγt (setting [5]) came to 118%. Besides, the IC50 at full-length human RORγt (setting [4]) worked out at 0.027 µM.

As to `C[C@H](Nc1cc(C(F)(F)F)c(-c2sc(C(=O)N[C@@H]3COC[C@@H]3O)nc2C(=O)N2C3CCC2CC3)cn1)C(F)(F)F` (single isomer, unassigned) [Example 228, 4-((1s,4s)-7-Azabicyclo[2.2.1]heptane-7-carbonyl)-N-((3R*,4R*)-4-hydroxytetrahydrofuran-3-yl)-5-(4-(trifluoromethyl)-6-(((S)-1,1,1-trifluoropropan-2-yl)amino)pyridin-3-yl)thiazole-2-carboxamide], the Kd in assay [1] (ThermoFluor® Assay, Kd (μM)) came out at 0.0023 µM. Moreover, on full-length human RORγt (Conditions B or C, marked ***: footnote not given), the “RORγt (FL) Reporter Assay B or C, % inhibition (value marked ***)” value is 91*** %. The same compound returned an IC50 against full-length human RORγt (setting [6]) of 0.095 µM.

Regarding `C[C@@H](Nc1cc(C(F)(F)F)c(-c2sc(C(=O)NCC(C)(C)O)nc2C(=O)N2CCC[C@@H]2C)cn1)C1CC1` [Example 48, 5-(6-(((R)-1-Cyclopropylethyl)amino)-4-(trifluoromethyl)pyridin-3-yl)-N-(2-hydroxy-2-methylpropyl)-4-((S)-2-methylpyrrolidine-1-carbonyl)thiazole-2-carboxamide], the Kd in assay [1] (setting [2]) amounted to 0.011 µM. Further, the “RORγt … % inhibition (value marked *)” value on full-length human RORγt (Conditions B or C) is 111* %. For the same compound, on full-length human RORγt (setting [3]), the IC50 stood at 0.023 µM.

Consider `C[C@H](Nc1cc(C(F)F)c(-c2sc(C(=O)N[C@H]3CC[C@@H]3O)nc2C(=O)N2CCC[C@@H]2C)cn1)C(F)(F)F` (relative stereo) [Example 388, 5-(4-(Difluoromethyl)-6-(((S)-1,1,1-trifluoropropan-2-yl)amino)pyridin-3-yl)-N-((1S*,2S*)-2-hydroxycyclobutyl)-4-((S)-2-methylpyrrolidine-1-carbonyl)thiazole-2-carboxamide], for which, in assay [1] (setting [2]), the Kd came out at 0.0086 µM. At full-length human RORγt (setting [5]), the inhibition at 3 µM amounted to 103%. At full-length human RORγt (setting [4]), the IC50 was determined as 0.085 µM.

For the compound `CC(Nc1cc(C(F)(F)F)c(-c2sc(C(=O)NCC(C)(C)O)nc2C(=O)N2CCCC[C@@H]2C)cn1)C(F)(F)F` (stereo partly drawn) [Example 33, N-(2-Hydroxy-2-methylpropyl)-4-((S)-2-methylpiperidine-1-carbonyl)-5-(4-(trifluoromethyl)-6-((1,1,1-trifluoropropan-2-yl)amino)pyridin-3-yl)thiazole-2-carboxamide], the Kd in assay [1] (setting [2]) came out at 0.00043 µM. For the same compound, the IC50 on full-length human RORγt (setting [3]) was 0.0052 µM. Besides, at full-length human RORγt (read-out: RORγt (FL) Reporter Assay B or C, % inhibition @ 6 μM, Conditions B or C, @ 6 μM), the inhibition at 6 µM is 109%.

What is called Kd is the equilibrium constant for the complex coming apart. As usually defined, the IC50 is the concentration needed to halve the response being measured. One may read the inhibition as the relative decrease from the control value, in per cent.

For the origin of these results see patent publication US10975068B2, “6-aminopyridin-3-yl thiazoles as modulators of RORγT” (Janssen Pharmaceutica NV, priority 2016, dated 2021).
